± gives the expanded uncertainty stated by the source.

The first data set can be described thus: xn = mol fraction of the nth substance listed. The settings on record: 288.15 K; 101 kPa; Liquid; Falling or rolling sphere viscometry; x2 = 0.
For `CCCCCCO` [hexan-1-ol] + CCCC(=O)OCC, the viscosity is reported as 6.308 ± 0.14 mPa·s.
Same read-out and setting: for `CC(C)CCO` [3-methylbutan-1-ol] + CCCC(=O)OCC the value was 5.057 ± 0.11 mPa·s; for `CC(C)CO` [2-methyl-1-propanol] + CCCC(=O)OCC, 4.829 ± 0.1 mPa·s; for `CCCO` [propan-1-ol] + CCCC(=O)OCC, 2.514 ± 0.054 mPa·s.
The same measure, in the same setting: for `CCCCO` [butan-1-ol] + CCCC(=O)OCC the value was 3.365 ± 0.072 mPa·s.

Still in this data set, the particulars now being: 288.15 K; 101 kPa; Liquid; Vibrating tube method; x2 = 0.
With `CCCCCCO` [hexan-1-ol] + CCCC(=O)OCC, the mass density is 822.26 ± 0.27 kg/m3.
Regarding `CC(C)CCO` [3-methylbutan-1-ol] + CCCC(=O)OCC, the mass density came to 812.29 ± 0.27 kg/m3.
Still for that read-out and setting: in the case of `CC(C)CO` [2-methyl-1-propanol] + CCCC(=O)OCC it was 805.88 ± 0.19 kg/m3.
In the case of `CCCO` [propan-1-ol] + CCCC(=O)OCC, the mass density was determined as 807.75 ± 0.2 kg/m3.
Same read-out and setting: in the case of `CCCCO` [butan-1-ol] + CCCC(=O)OCC it was 813.46 ± 0.2 kg/m3.

Staying with this data set, now noted: 293.15 K; 101 kPa; Liquid; Falling or rolling sphere viscometry; x2 = 0.
As to `CCCCCCO` [hexan-1-ol] + CCCC(=O)OCC, the viscosity is recorded as 5.332 ± 0.12 mPa·s.
As to `CC(C)CCO` [3-methylbutan-1-ol] + CCCC(=O)OCC, the viscosity was 4.288 ± 0.094 mPa·s.
Regarding `CC(C)CO` [2-methyl-1-propanol] + CCCC(=O)OCC, the viscosity is on record as 4.052 ± 0.086 mPa·s.
On the same count and under the same terms, in the case of `CCCO` [propan-1-ol] + CCCC(=O)OCC it was 2.208 ± 0.047 mPa·s.
On to `CCCCO` [butan-1-ol] + CCCC(=O)OCC, for which the viscosity was found to be 2.913 ± 0.062 mPa·s.

Still in this data set, the particulars now being: 293.15 K; 101 kPa; Liquid; Vibrating tube method; x2 = 0.
Consider `CCCCCCO` [hexan-1-ol] + CCCC(=O)OCC, for which the mass density amounted to 818.7 ± 0.27 kg/m3.
Consider `CC(C)CCO` [3-methylbutan-1-ol] + CCCC(=O)OCC, for which the mass density was 808.58 ± 0.27 kg/m3.
Same read-out and setting: in the case of `CC(C)CO` [2-methyl-1-propanol] + CCCC(=O)OCC it was 802.03 ± 0.19 kg/m3; in that of `CCCO` [propan-1-ol] + CCCC(=O)OCC, 803.77 ± 0.21 kg/m3.
The same measure, in the same setting: for `CCCCO` [butan-1-ol] + CCCC(=O)OCC the value was 809.66 ± 0.2 kg/m3.

The data set is the same for the next values; noted with them: 298.15 K; 101 kPa; Liquid; Falling or rolling sphere viscometry; x2 = 0.
In the case of `CCCCCCO` [hexan-1-ol] + CCCC(=O)OCC, the viscosity came to 4.538 ± 0.099 mPa·s.
In the case of `CC(C)CCO` [3-methylbutan-1-ol] + CCCC(=O)OCC, the viscosity stood at 3.671 ± 0.08 mPa·s.
`CC(C)CO` [2-methyl-1-propanol] + CCCC(=O)OCC: the viscosity amounted to 3.431 ± 0.073 mPa·s.
For the compound `CCCO` [propan-1-ol] + CCCC(=O)OCC, the viscosity stood at 1.95 ± 0.042 mPa·s.
In the case of `CCCCO` [butan-1-ol] + CCCC(=O)OCC, the viscosity was found to be 2.563 ± 0.055 mPa·s.

The data set is the same for the next values; noted with them: 298.15 K; 101 kPa; Liquid; Vibrating tube method; x2 = 0.
For `CCCCCCO` [hexan-1-ol] + CCCC(=O)OCC, the mass density stood at 815.12 ± 0.27 kg/m3.
On the same count and under the same terms, in the case of `CC(C)CCO` [3-methylbutan-1-ol] + CCCC(=O)OCC it was 804.84 ± 0.27 kg/m3.
On to `CC(C)CO` [2-methyl-1-propanol] + CCCC(=O)OCC, for which the mass density is listed as 798.16 ± 0.2 kg/m3.
As for `CCCO` [propan-1-ol] + CCCC(=O)OCC, the mass density is 799.76 ± 0.21 kg/m3.
As for `CCCCO` [butan-1-ol] + CCCC(=O)OCC, the mass density is 805.84 ± 0.2 kg/m3.

Staying with this data set, now noted: 303.15 K; 101 kPa; Liquid; Falling or rolling sphere viscometry; x2 = 0.
Consider `CCCCCCO` [hexan-1-ol] + CCCC(=O)OCC, for which the viscosity came to 3.896 ± 0.085 mPa·s.
For the compound `CC(C)CCO` [3-methylbutan-1-ol] + CCCC(=O)OCC, the viscosity came out at 3.155 ± 0.069 mPa·s.
On the same count and under the same terms, in the case of `CC(C)CO` [2-methyl-1-propanol] + CCCC(=O)OCC it was 2.923 ± 0.062 mPa·s; in that of `CCCO` [propan-1-ol] + CCCC(=O)OCC, 1.727 ± 0.037 mPa·s; in that of `CCCCO` [butan-1-ol] + CCCC(=O)OCC, 2.257 ± 0.048 mPa·s.

Still in this data set, the particulars now being: 303.15 K; 101 kPa; Liquid; Vibrating tube method; x2 = 0.
Regarding `CCCCCCO` [hexan-1-ol] + CCCC(=O)OCC, the mass density turned out to be 811.52 ± 0.27 kg/m3.
Take `CC(C)CCO` [3-methylbutan-1-ol] + CCCC(=O)OCC: the mass density is 801.09 ± 0.27 kg/m3.
On to `CC(C)CO` [2-methyl-1-propanol] + CCCC(=O)OCC, for which the mass density was 794.25 ± 0.2 kg/m3.
As for `CCCO` [propan-1-ol] + CCCC(=O)OCC, the mass density came to 795.72 ± 0.21 kg/m3.
Same read-out and setting: for `CCCCO` [butan-1-ol] + CCCC(=O)OCC the value was 801.99 ± 0.21 kg/m3.

Staying with this data set, now noted: 308.15 K; 101 kPa; Liquid; Falling or rolling sphere viscometry; x2 = 0.
Regarding `CCCCCCO` [hexan-1-ol] + CCCC(=O)OCC, the viscosity came to 3.361 ± 0.073 mPa·s.
As to `CC(C)CCO` [3-methylbutan-1-ol] + CCCC(=O)OCC, the viscosity was 2.73 ± 0.06 mPa·s.
In the case of `CC(C)CO` [2-methyl-1-propanol] + CCCC(=O)OCC, the viscosity came to 2.505 ± 0.053 mPa·s.
`CCCO` [propan-1-ol] + CCCC(=O)OCC: the viscosity is given as 1.542 ± 0.033 mPa·s.
`CCCCO` [butan-1-ol] + CCCC(=O)OCC: the viscosity was 1.994 ± 0.043 mPa·s.

The data set is the same for the next values; noted with them: 308.15 K; 101 kPa; Liquid; Vibrating tube method; x2 = 0.
Consider `CCCCCCO` [hexan-1-ol] + CCCC(=O)OCC, for which the mass density was found to be 807.89 ± 0.27 kg/m3.
The same measure, in the same setting: for `CC(C)CCO` [3-methylbutan-1-ol] + CCCC(=O)OCC the value was 797.31 ± 0.27 kg/m3; for `CC(C)CO` [2-methyl-1-propanol] + CCCC(=O)OCC, 790.31 ± 0.2 kg/m3; for `CCCO` [propan-1-ol] + CCCC(=O)OCC, 791.64 ± 0.21 kg/m3.
Consider `CCCCO` [butan-1-ol] + CCCC(=O)OCC, for which the mass density amounted to 798.12 ± 0.21 kg/m3.

The data set is the same for the next values; noted with them: 313.15 K; 101 kPa; Liquid; Falling or rolling sphere viscometry; x2 = 0.
As to `CCCCCCO` [hexan-1-ol] + CCCC(=O)OCC, the viscosity is recorded as 2.917 ± 0.064 mPa·s.
On the same count and under the same terms, in the case of `CC(C)CCO` [3-methylbutan-1-ol] + CCCC(=O)OCC it was 2.375 ± 0.052 mPa·s; in that of `CC(C)CO` [2-methyl-1-propanol] + CCCC(=O)OCC, 2.161 ± 0.046 mPa·s.
As for `CCCO` [propan-1-ol] + CCCC(=O)OCC, the viscosity amounted to 1.378 ± 0.029 mPa·s.
On to `CCCCO` [butan-1-ol] + CCCC(=O)OCC, for which the viscosity worked out at 1.779 ± 0.038 mPa·s.

Still in this data set, the particulars now being: 313.15 K; 101 kPa; Liquid; Vibrating tube method; x2 = 0.
With `CCCCCCO` [hexan-1-ol] + CCCC(=O)OCC, the mass density is listed as 804.25 ± 0.27 kg/m3.
Same read-out and setting: for `CC(C)CCO` [3-methylbutan-1-ol] + CCCC(=O)OCC the value was 793.51 ± 0.27 kg/m3.
On the same count and under the same terms, in the case of `CC(C)CO` [2-methyl-1-propanol] + CCCC(=O)OCC it was 786.31 ± 0.2 kg/m3.
`CCCO` [propan-1-ol] + CCCC(=O)OCC: the mass density is reported as 787.52 ± 0.21 kg/m3.
Same read-out and setting: for `CCCCO` [butan-1-ol] + CCCC(=O)OCC the value was 794.22 ± 0.21 kg/m3.

Staying with this data set, now noted: 318.15 K; 101 kPa; Liquid; Falling or rolling sphere viscometry; x2 = 0.
As to `CCCCCCO` [hexan-1-ol] + CCCC(=O)OCC, the viscosity is 2.546 ± 0.056 mPa·s.
Consider `CC(C)CCO` [3-methylbutan-1-ol] + CCCC(=O)OCC, for which the viscosity was found to be 2.076 ± 0.045 mPa·s.
As for `CC(C)CO` [2-methyl-1-propanol] + CCCC(=O)OCC, the viscosity is given as 1.876 ± 0.04 mPa·s.
Still for that read-out and setting: for `CCCO` [propan-1-ol] + CCCC(=O)OCC the value was 1.236 ± 0.026 mPa·s; for `CCCCO` [butan-1-ol] + CCCC(=O)OCC, 1.576 ± 0.034 mPa·s.

Staying with this data set, now noted: 318.15 K; 101 kPa; Liquid; Vibrating tube method; x2 = 0.
For the compound `CCCCCCO` [hexan-1-ol] + CCCC(=O)OCC, the mass density turned out to be 800.56 ± 0.27 kg/m3.
Same read-out and setting: in the case of `CC(C)CCO` [3-methylbutan-1-ol] + CCCC(=O)OCC it was 789.67 ± 0.27 kg/m3; in that of `CC(C)CO` [2-methyl-1-propanol] + CCCC(=O)OCC, 782.26 ± 0.2 kg/m3.
Regarding `CCCO` [propan-1-ol] + CCCC(=O)OCC, the mass density is reported as 783.36 ± 0.21 kg/m3.
Regarding `CCCCO` [butan-1-ol] + CCCC(=O)OCC, the mass density is recorded as 790.28 ± 0.21 kg/m3.

The data set is the same for the next values; noted with them: 323.15 K; 101 kPa; Liquid; Falling or rolling sphere viscometry; x2 = 0.
Take `CCCCCCO` [hexan-1-ol] + CCCC(=O)OCC: the viscosity amounted to 2.241 ± 0.049 mPa·s.
Take `CC(C)CCO` [3-methylbutan-1-ol] + CCCC(=O)OCC: the viscosity came out at 1.841 ± 0.04 mPa·s.
The same measure, in the same setting: in the case of `CC(C)CO` [2-methyl-1-propanol] + CCCC(=O)OCC it was 1.652 ± 0.035 mPa·s; in that of `CCCO` [propan-1-ol] + CCCC(=O)OCC, 1.124 ± 0.024 mPa·s; in that of `CCCCO` [butan-1-ol] + CCCC(=O)OCC, 1.422 ± 0.03 mPa·s.

The same data set, now with this note: 323.15 K; 101 kPa; Liquid; Vibrating tube method; x2 = 0.
In the case of `CCCCCCO` [hexan-1-ol] + CCCC(=O)OCC, the mass density was determined as 796.85 ± 0.27 kg/m3.
`CC(C)CCO` [3-methylbutan-1-ol] + CCCC(=O)OCC: the mass density is on record as 785.79 ± 0.27 kg/m3.
On to `CC(C)CO` [2-methyl-1-propanol] + CCCC(=O)OCC, for which the mass density worked out at 778.14 ± 0.2 kg/m3.
On the same count and under the same terms, in the case of `CCCO` [propan-1-ol] + CCCC(=O)OCC it was 779.14 ± 0.21 kg/m3.
On the same count and under the same terms, for `CCCCO` [butan-1-ol] + CCCC(=O)OCC the value was 786.29 ± 0.21 kg/m3.

Assay in another data set: not given
The settings on record: 288.15 K; 101 kPa; Liquid; Falling or rolling sphere viscometry.
As for `CCCC(=O)OCC` [ethyl butanoate], the viscosity was 0.7224 ± 0.016 mPa·s.
With `CCCO` [propan-1-ol], the viscosity came out at 2.514 ± 0.054 mPa·s.
Still for that read-out and setting: in the case of `CC(C)CO` [2-methyl-1-propanol] it was 4.829 ± 0.1 mPa·s; in that of `CC(C)CCO` [3-methylbutan-1-ol], 5.057 ± 0.11 mPa·s; in that of `CCCCCCO` [hexan-1-ol], 6.308 ± 0.14 mPa·s.
`CCCCO` [butan-1-ol]: the viscosity is listed as 3.365 ± 0.072 mPa·s.

The data set is the same for the next values; noted with them: 288.15 K; 101 kPa; Liquid; Vibrating tube method.
For the compound `CCCC(=O)OCC` [ethyl butanoate], the mass density stood at 884.16 ± 0.27 kg/m3.
For the compound `CCCO` [propan-1-ol], the mass density worked out at 807.75 ± 0.2 kg/m3.

Usually viscosity stands for the internal friction of a fluid under shear. The term mass density denotes mass per unit of volume.
